Results: paper PMC8905628, “Integrin α6-Targeted Molecular Imaging of Central Nervous System Leukemia in Mice” (Frontiers in Bioengineering and Biotechnology, 2022)

Assays:
integrin α6 = details: cited from earlier work
Source text: We further translated the RWY peptide into an integrin α6-targeted PET probe and MRI probe that have been successfully applied for tumor imaging of the integrin α6 expression ([Feng GK et al., 2019]; [Xiao et al., 2019]; [Zhang Y et al., 2020]; [Gao et al., 2020]). Recently, our group improved the characteristics of the peptide by alanine scanning and obtained a novel integrin α6-targeting peptide […] (dubbed S5) which ...

[1] = test system: Human ITGA6 & ITGB4 Heterodimer Protein; experiment: Microscale thermophoresis affinity of S5 peptides; type: binding; details: cyclic vs straight S5 peptide; preliminary experiments, Supplementary Figures S2A, S2B; MST, Monolith NT.115, protein 100 nM, peptide from 100 uM diluted 1:1, PBST, 80 % LED/excitation power, medium MST power
Protocol: The affinity of cyclic S5 peptide, straight S5 peptide, NOTA-S5 and Gd-S5 with Human ITGA6 & ITGB4 Heterodimer Protein (Manufactured by Sino Biological Catalog Number: CT069-H2508H) was determined by microscale thermophoresis (MST). Firstly, 0.05% PBST was prepared, 25ul of Tween 20 was added to 50ml of PBS and filtered through 0.22um filter paper. Then dilute the peptide: dissolve the above 4 peptides into 1mM storage solution concentration. Take 20 ul of peptide and mix with 80 ul of PBST and dilute to a working concentration of […]. Next dilute the dye: Take 2 µL of RED-tris-NTA II dye (Manufactured by NanoTemper Cat# MO-L018 5 µM) and mix with 98 µl of PBST to obtain 100 µL of dye (100 nM). Finally, 100 ul of Human ITGA6 & ITGB4 Heterodimer Protein (400 nM) was mixed with 100 ul of dye (100 nM) and incubated at room temperature for 30 min, at which time the protein concentration was 200 nM. 10 ul of peptide (200 uM) was added to the PCR tube, and 16 tubes were diluted 1:1 with PBST. Then take 3 ul of protein/dye mixture in the PCR tube, add 3 ul of […] concentrations of peptide and mix well. The concentration of protein was 100 nM and the concentration of peptide in the first tube was 100 uM. […] Kd was calculated by Kd fitting mode using MO.Affinity Analysis.

NALM6 cells = experiment: Immunofluorescence / confocal microscopy of S5 peptide in NALM6 cells; type: cell-based, human
Protocol: Approximately 1 × 10^6 NALM6 cells were seeded on cover slips in 24-well plates and incubated for 24 h. Subsequently, the 80 μM S5 peptide was added into the culture medium and incubated with cells for 4 h, while the blank control group was added to the same volume of RPMI 1640 medium. After that, cells of each group were washed with PBS five times, fixed with 4% paraformaldehyde for 15 min, permeabilized with 0.1% Triton X-100 (Sigma-Aldrich, Germany), and blocked with 1% BSA for 30 min. The cover slips were incubated with the anti-integrin α6 antibody (Abcam, ab181551) at 4°C overnight, followed by incubation with streptavidin-Cy3 (Thermo Fisher 434315, United States) and the goat anti-mouse Alexa Fluor 488 secondary antibody (Abcam, ab150113) for 1 h at room temperature in a dark chamber. Finally, cover slips were incubated with 1 μg/ml DAPI and mounted with slides with ProLong gold antifade (Invitrogen P26930, United States). Fluorescence images were visualized and captured under a confocal microscopy confocal laser-scanning system (Zeiss, LSM980, Germany) at 40× and 100× magnification. Co-localization was analyzed by ImageJ (http://rsbweb.nih.gov/ij/) and the co-localization finder plug-in.

[2] = test system: NALM6-luciferase tumor-bearing mice; experiment: T1-weighted MR imaging of NALM6-luciferase tumor-bearing mice (CNS-L); type: in vivo, NOD/SCID mice; details: 0.03 mmol of Gd/kg, tail vein, 3.0 T, baseline and 5, 10, 15 min post-injection
Protocol: The human ALL cell lines including NALM6, Reh, Jurkat, and CCRF-CEM were purchased from the American Type Culture Collection (ATCC) and cultured in RPMI 1640 medium supplemented with 10% fetal bovine serum and 0.5% penicillin–streptomycin and incubated at 37 °C/5%CO2. To facilitate tumor monitoring, luminescent cells NALM6-luciferase were generated by stable transfection with luciferase. Female NOD/SCID mice (6 weeks old) were purchased from Vita River, Charles River Laboratories, China (Beijing, China). NOD/SCID mice were injected via the tail vein with 1 × 10^6 luciferased cells suspended in 150 µl of sterile phosphate-buffered saline (PBS). Bioluminescence imaging was applied to monitor the leukemic burden. All animal experiments were approved by the Institutional Animal Care and Use Committee (IACUC) at the Sun Yat-sen University Cancer Center (IACUC approval number L102012020070M), and the welfare and treatment of the laboratory animals were in accordance with the corresponding animal management regulations.
Bioluminescence confirmed CNS-L mice were used for MR and PET imaging studies in the next few days after the NIRF imaging. MR imaging was performed using a Philips Achieva 3.0 T system. Mice were anesthetized with 2,2,2-Tribromoethanol ([…]), fixed on the holder, and placed into the mouse-imaging coil. […]

## CRWYDENAC [reference compound]
Integrin α6; identified by phage display technology, ref Feng G et al., 2019
  binding to integrin α6: could bind specifically to integrin α6

## CRWYDANAC [S5]
[1]
  binding of cyclic and straight peptides compared: equivalent
NALM6 cells; 80 μM S5 peptide, 4 h, green fluorescence
  cellular uptake of the S5 peptide: entered the cytoplasm through cytocytosis after binding to the cell membrane
NALM6 cells; 80 μM S5 peptide, 4 h of co-culturing, fluorescence microscopy
  cellular localization of the S5 peptide: enriched and localized at the nuclei of NALM6 cells
NALM6 cells; NALM6 cells, as summarised in Discussion
  location of integrin α6 and the S5 peptide confirmed by confocal microscopy (Discussion): dominating membrane location
Integrin α6; vs RWY, obtained by alanine scanning, ref Mei et al., 2020, Lin et al., 2021
  specificity and affinity to integrin α6: higher specificity and affinity

## O=C([O-])CN(CCN(CC(=O)[O-])CC(=O)O)CCN(CC(=O)[O-])CC(=O)O.[Gd+3] [Gd-DTPA, gadolinium-diethylenetriamine pentaacetic acid]
[2]
  MR enhancement signals: did not show obvious enhancement signals
